These results are taken from US20060063209A1, “Engineered antibody fragment that irreversibly binds an antigen” (THE REGENTS OF THE UNIVERSITY OF CALIFORNIA, priority 2004, published 2006).

“Also recorded” adds a separate entry of the source.

Broadly, the Kd is the constant that tells how readily two partners part at equilibrium.

Data set [1] in a line: Whole-body clearance of indium-111 labeled electrophilic benzyl-EDTA derivatives. In kind it is in vivo. Conditions: indium-111 labeled chelate, BALB/c mice; for apparent half-life, whole-body clearance: after tail-vein injection. As to the method:
FIG. 4 Whole-body clearance of indium-^111I labeled electrophilic derivatives of benzyl-EDTA from BALB/c mice after tail-vein injection. Here the objective was to find an electrophilic chelate that clears from the animal quickly when not captured by an engineered CHA255.
As reactive ligands, a small set of chelates bearing electrophilic para substituents (FIG. 3) that could react with cysteine were prepared. To be most useful, the electrophilic ligands should be stable in biological media so that they not react prematurely with common biological nucleophiles such as the cysteine on glutathione or in albumin (Geigy Scientific Tables Vol 3, C. Lentner, ed., Ciba-Geigy Ltd., Basel, Switz (1984)). The whole-body clearance of the radiolabeled chelates from mice was studied (FIG. 4 and Chmura, A. J., et al., J. Controlled Release 78:249-258 (2002)) to identify the electrophilic chelates that are unreactive in plasma in vitro, and which also quantitatively clear from live animals.

The test system of data set [2] is Fab S95C. The data set is described as follows: Covalent attachment of 111In-chelates to engineered Fab S95C (SDS-PAGE). In kind it is binding. The settings on record: physiological pH and temperature, raw culture medium with 10% fetal calf serum. Here is the method:
FIG. 5 Conjugation of electrophilic ^111In-benzyl-EDTA derivatives with engineered Fab S95C. Phosphorimage of 10-20% SDS-PAGE gel of samples of complete culture media incubated with ^111In-labeled (A) CABE, (B) CpABE, (C) AABE, and (D) ABE. The radiolabeled light chains migrate near 25 Kd.
To investigate whether either the S95C or the N96C Fab would bind irreversibly to its target, ^111In-labeled chelates bearing electrophilic groups were incubated at physiological pH and temperature with raw tissue culture medium from the cells expressing these recombinant proteins. The culture medium contained 10% fetal calf serum, representative of typical biological media.
The samples were analyzed by denaturing gel electrophoresis (SDS-PAGE). Separation under reducing and denaturing conditions on SDS-PAGE separates the light chain from the heavy chain of each Fab, functionally destroying the antibody-binding pocket. Chelates bound to the Fab but not covalently linked will dissociate because the antibody-binding pocket is no longer folded. […] However, a chelate that not only bound to a Fab but also covalently linked will be attached to the Fab light chain and migrate with it on SDS-PAGE.

Data set [3] concerns S95C Fab. Briefly: Competition assay: blocking covalent attachment of 111In-AABE. In kind it is binding. Conditions: excess nonradioactive ABE-metal chelate. The source says: (a) Competition ELISA curves. Different metal-ABE chelates compete with an immobilized indium chelate for binding Fab S95C. (b) Competitive binding of a series of metal-ABE chelates, measured by blocking the covalent attachment of ^111In-AABE to Fab S95C. SDSPAGE gel bands show increased labeling of the light chain with decreasing competition.
To further confirm that S95C Fab retained the ligand-binding specificity, we performed a competition assay to see whether nonradioactive ABE-indium, -iron, -cadmium, -scandium, or -gallium could block the covalent attachment of ^111In-AABE.

Data set [4] concerns Fab S95C. The data set is described as follows: Kinetics of covalent bond formation with Fab S95C. Conditions: 22° C., pH 7.4. In kind it is binding. As to the method:
FIG. 7 (a) Phosphorimage of a representative SDS-PAGE assay of the extent of permanent attachment of ^111In-AABE to the light chain of Fab S95C. (b)Kinetics of formation of the covalent bond between bound ^111In-AABE and Fab S95C, at 22° C., pH 7.4.
We explored the rate of covalent attachment of the AABE-^111In chelate to the S95C mutant, by monitoring the extent of reaction as a function of time. The covalent attachment was 50% complete in approximately 10 min at 22° C. (FIG. 7).

For data set [5], the system named is antibody 2D12.5. The data set is described as follows: Competitive immunoassay (ELISA) of metal chelate binding. Also noted: species or system mouse. Conditions: reversible binding to parental 2D12.5. The source says:
FIG. 9 Relative binding of metal-(S)NBD complexes to antibody 2D12.5. A representative set of competitive binding curves obtained from ELISA experiments. Distance between midpoints is related to difference between dissociation constants. Error bars (representing the standard error of the mean) are shown but are generally smaller than the data points.
FIG. 14 Binding of yttrium chelates with different stereochemistry to antibody 2D12.5, showing that the antibody binds a chelate with the side chain in the R configuration approximately one order of magnitude less well than the S configuration. […] Error bars are smaller than the data symbols. Data were generated by competitive ELISA.
A competitive immunoassay to measure the binding constants of various metal-(S)NBD complexes relative to the original Y^3+ complex (FIG. 9) was developed to assess the metal selectivity of antibody 2D12.5. Briefly, 2D12.5 was incubated at 37° C. in the presence of immobilized HSA-21T-Y-(S)BAD and a soluble metal-(S)NBD competitor (Y-(S)BAD was linked to human serum albumin via 2-iminothiolane). The metal-(S)NBD concentration was varied from μM to pM in order to determine the relative binding affinity of 2D12.5 for each metal chelate in comparison to Y-(S)NBD. […] Other antibodies that bind metal chelates do so with a strong preference for one or possibly two metals (Love, R. et al., Biochemistry 32, 10950-10959 (1993), and Khosraviani, M., et al., (2000) Bioconjugate Chem., 11, 267-277). For example, the (S)NBD chelate of group IIIB ion Sc(III) binds to the antibody with a much lower affinity (<1%) than the strongest binding rare earth complexes, perhaps because Sc(III) has a much smaller ionic radius (Meehan, P. R., et al., Coord. Chem. Rev., 181, 121145, and Shannon, R. D. (1976) Acta Crystallogr., Sect. A: Found. Crystallogr., A32, 751-767).
On the technique in general: In an ELISA, binding on a coated surface is turned into a signal by an enzyme label.

For data set [6], the system named is G54C Fab. Briefly: Kinetics of permanent bond formation with G54C Fab. The data set is classed as binding. As to the method: FIG. 21 Kinetics of permanent bond formation between G54C Fab (1 μM) and 10 μM ^90Y-labeled YAABD. The addition of a high concentration of Y-NBD, a reversibly binding competitor, after 6 min competitively blocks the re-binding of any Y-AABD that dissociates without forming a permanent bond. The experiment containing no competitor, on the other hand, allows any Y-AABD molecules initially bound in an unproductive mode to rebind in an orientation favorable for permanent covalent bond formation until a maximum is reached.
The question to be addressed was the probability that Y-AABD reacts with G54C the first time it forms a complex, instead of dissociating and rebinding. In the first experiment ^90Y-labeled Y-AABD (10 μM) was added to G54C Fab (1 μM) at 37° C., pH 7.5. Samples were withdrawn at various times and were immediately added to SAB, boiled and reduced under denaturing conditions to halt any further permanent bond formation. Samples were analyzed by SDS-PAGE, and the extent of permanent bond formation was determined by measuring the relative radioactivity of bands.
In a second experiment, performed in parallel, conditions were identical to the first except that the reversible competitor Y-NBD was added in vast excess (1 mM) relative to Y-AABD after 6 min, allowing labeled Y-AABD complexes to form bonds or dissociate, but competitively blocking any re-binding of Y-AABD to G54C.

The subject of data set [7] is G54C mutant of 2D12.5. The data set is described as follows: Permanent binding to G54C, competitive 90Y-AABD attachment, SDS-PAGE. Conditions: 37° C. As to the method:
FIG. 17 a) Scheme describing the permanent binding pair. b) Infinite binding is observed not only for ^90Y-AABD but also for ^111In-AABD, assayed by SDS-PAGE under denaturing conditions where only permanently bound complexes remain attached to the antibody.
FIG. 18 The G54C mutant was preincubated in triplicate with 10 μM AABD complexes of Y^3+, In^3+ or Cu^2+, a negative control N-(1-carbamoyl-2-(4-nitrophenyl)-ethyl)-acrylamide or N-(4-carboxymethylphenyl)-acrylamide, or just buffer, for 5 min, 20 min or 120 min at 37° C., pH 7.5. At the stated times ^90Y-AABD (1 μM) was added to each solution to compete for free G54C. Permanent binding was assayed by measuring band intensities after SDS-PAGE. a) Phosphorimage of gel. The fainter the bands, the greater the permanent binding by the unlabeled ligand. b) Crystal structures of Y-DOTA, In-DOTA-mono(p aminoanilide) (some atoms removed for clarity) and Cu-DOTA.
FIG. 19 a) Metal-AABD (10 μM) complexes were preincubated separately with aliquots of G54C for 5 min, followed by addition of 1 μM ^90Y-AABD, which competes for free G54C, and SDS-PAGE analysis. b) From quantitative phosphorimaging, the highest-affinity AABD complexes form permanent bonds with G54C with higher yields than more 3+weakly binding rare earth-AABD complexes whose ionic radii are slightly smaller (Lu Yb^3+) or larger (Ce^3+, La^3+) than ideal.
We were curious to see if an even weaker binder such as a copper chelate (KD˜10^−4 M for Cu-NBD) would bind irreversibly under ordinary conditions. We tested this by comparing the permanent binding of Y^3+-, In^3+-, and Cu^2+-AABD, using competitive ^90Y-AABD attachment as an indicator (FIG. 18). […] Weaker binding In-AABD blocks >50% of the sites after 5 min preincubation, and even more at later times. Very weakly binding Cu-AABD initially occupies only about 10% of the G54C sites under these conditions, but it has permanently attached to G54C in good yield after 2 hr, blocking>70% of the sites.

Consider `Nc1ccc(C[C@@H](CN(CC(=O)O)CC(=O)O)N(CC(=O)O)CC(=O)O)cc1` [ABE, (S)-1-[p-(amino)benzyl]-EDTA, reference compound], for which the “apparent half-life, whole-body clearance” value in data set [1] is reported as “about 4 h”. For the same compound, the “covalent attachment to Fab S95C light chain” value in data set [2] is reported as “not”. The “blocking of covalent attachment of 111In-AABE” value in data set [3] is “effectively blocks the reaction”.
On to `C=CC(=O)Nc1ccc(C[C@@H](CN(CC(=O)O)CC(=O)O)N(CC(=O)O)CC(=O)O)cc1` [AABE, (S)-1-[p-(acrylamido)benzyl]-EDTA], for which, in data set [4], the “time to 50% complete covalent attachment” value was “approximately 10 min”. Also, the “whole-body clearance” value in data set [1] is listed as “showed the required clearance properties; also recorded: clears as completely—and almost as rapidly—as ABE”. Further, in data set [1], the “apparent half-life, whole-body clearance” value is reported as “about 4 h”. The “covalent attachment to Fab S95C light chain” value is reported as “reacted equally well” in data set [2] (listed as 111In-AABE) and “reacted with the S95C mutant of CHA255 to permanently tag the light chain” in data set [2] (listed as AABE-^111In).
Turning to `C=CC(=O)Nc1ccc(C[C@H]2CN(CC(=O)O)CCN(CC(=O)O)CCN(CC(=O)O)CCN2CC(=O)O)cc1` [Y-AABD, (S)-2-(4-acrylamidobenzyl)-DOTA], the Kd in data set [5] came out at 4 nM. In data set [6], the “fraction of molecules reacting upon initial complex formation” value is recorded as “about half”. In data set [7] (10 μM complex, preincubation 5 min, pH 7.5), the “G54C sites blocked from 90Y-AABD” value was greater than 90%. Further, the “permanent binding to G54C” value in data set [7] (pH 7.5, SDS-PAGE, listed as 90Y-AABD) is “permanently and specifically attaches”.
